Experimental data: paper PMC8560925, “Inhibition of Clostridium difficile TcdA and TcdB toxins with transition state analogues” (Nature Communications, 2021)
Where “and” joins values, the source holds several entries; their conditions need not be identical. Equal entries are not always repeated. Structures can show the parent of a compound that is named as a salt. Where two headings read alike, the source gives them in different places.

How the values were obtained:
TcdB-GTD [1] = target: T1, TcdB-GTD (Clostridioides difficile, UniProt P18177); test: biochemical; type: biochemical, Clostridium difficile
T1 construct: C-terminal His-6 tagged TcdB-GTD (amino acids 1-546); His6 (C); made in house; host or cells: Escherichia coli One Shot BL21 Star (DE3)

TcdB-GTD [2] = target: T1, TcdB-GTD; test: biochemical; parameters: species or system Clostridium difficile
C. sordelli lethal toxin = conditions: cited from earlier work
TcdB-GTD [3] = conditions: cited from earlier work
cell lines = test: Cell toxicity of the iminosugars in the cell lines used; type: cell-based; conditions: high treatment concentrations
TcdB-GTD [4] = target: T1, TcdB-GTD; type: binding, Clostridium difficile
[5] = test system: TcdA-induced apoptosis of HT-29 cells; type: cell-based
[6] = test system: Rac1 glucosylation by TcdB in IMR90 cells; test: Western blot analysis of Rac1 glucosylation in IMR90 cells, TcdB; type: cell-based, human; conditions: 12.5–100 µM iminosugar, 0.1 nM TcdB, 6 h
Description: (§1) IMR90 cells were grown in EMEM with 10% FBS in 24-well plates inoculated at 50,000 cells/well. […] Next, TcdA (1 nM final) or TcdB (0.1 nM final) was added to each well and cells were incubated at 37 °C, 5% CO2 for 6 h. The cells were lysed with mammalian cell lysis buffer (Abcam) according to manufacturer’s instructions. Cell lysates (2 µg) were heated at 95 °C in XT-loading dye (Bio-rad) before being loaded on an SDS polyacrylamide gel. Following electrophoresis, samples were transferred to PVDF membrane using an iblot2 device (ThermoFisher), blocked with 1% milk in PBS 0.1% Tween 20 for 1 h at room temperature and probed with a 1/4000 dilution of anti-Rac1 (Mab102, Thermo Fisher) and 1/8000 of anti-GAPDH antibody (Abcam) for 1 h at room temperature. Following incubation with the primary antibody, the membrane was washed 3 times with PBS with 0.1% Tween20 and incubated with a 1/40,000 dilution of secondary antibody for 1 h. Following incubation with the secondary antibody, the membrane was washed 3 times in PBS 0.1% tween 20 before a final wash in PBS. […]

[7] = parameters: method as in Khanna et al, FEBS journal, 2010, vol 277, p 1618; conditions: after administration; ref Khanna et al, FEBS journal, 2010, vol 277, p 1618; cited from earlier work
[8] = test system: TcdB-induced cell rounding of Vero cells; test: cells; type: cell-based; conditions: Chlorocebus sabaeus, 1.5 h, read-out: Calculated IC50 cell rounding
Gaucher disease patients = test system: Gaucher disease patients; parameters: method as in NCTs: 00433147; 00446550; 00813865; 00875160; conditions: ref NCTs: 00433147, 00446550, 00813865, 00875160, cited from earlier work
[9] = test system: TcdA-induced cell rounding of IMR90 cells; type: cell-based, human
[10] = test system: TcdA-induced cell rounding of Vero cells; test: cells; type: cell-based; conditions: Chlorocebus sabaeus, 2 h, read-out: Calculated IC50 cell rounding
TcdA-GTD = target: T2, TcdA-GTD (Clostridioides difficile, UniProt P16154); test: biochemical; type: biochemical, Clostridium difficile
T2 construct: TcdA-GTD (amino acids 1–542); His6 (C); made in house; host or cells: E. coli One shot BL21 Star (DE3)

[11] = test system: Rac1 glucosylation by TcdA in IMR90 cells; test: Western blot analysis of Rac1 glucosylation in IMR90 cells, TcdA; type: cell-based, human; conditions: 12.5–100 µM iminosugar, 1 nM TcdA, 6 h
Description: as §1

[12] = target: T3, TcdB-GTD in the presence of UDP (Clostridioides difficile, UniProt P18177); test: biochemical; type: binding, Clostridium difficile; conditions: for Kd: ITC, 1 mM UDP
T3 construct: C-terminal His-6 tagged TcdB-GTD (amino acids 1-546); His6 (C); made in house; host or cells: Escherichia coli One Shot BL21 Star (DE3)

[13] = test system: TcdB-induced cell rounding of IMR90 cells; type: cell-based, human
[14] = Ki TcdB-GTD glucosyltransferase activity
[15] = Ki TcdB-GTD glucohydrolase activity
[16] = Ki TcdB-GTD glucosyltransferase activity, fixed concentration of UDP at 2 x Ki UDP
[17] = Ki TcdA-GTD glucosyltransferase activity
[18] = Ki TcdA-GTD glucosyltransferase activity, fixed concentration of UDP at 2 x Ki UDP

T1 sequence (P18177 1-546 limits assumed): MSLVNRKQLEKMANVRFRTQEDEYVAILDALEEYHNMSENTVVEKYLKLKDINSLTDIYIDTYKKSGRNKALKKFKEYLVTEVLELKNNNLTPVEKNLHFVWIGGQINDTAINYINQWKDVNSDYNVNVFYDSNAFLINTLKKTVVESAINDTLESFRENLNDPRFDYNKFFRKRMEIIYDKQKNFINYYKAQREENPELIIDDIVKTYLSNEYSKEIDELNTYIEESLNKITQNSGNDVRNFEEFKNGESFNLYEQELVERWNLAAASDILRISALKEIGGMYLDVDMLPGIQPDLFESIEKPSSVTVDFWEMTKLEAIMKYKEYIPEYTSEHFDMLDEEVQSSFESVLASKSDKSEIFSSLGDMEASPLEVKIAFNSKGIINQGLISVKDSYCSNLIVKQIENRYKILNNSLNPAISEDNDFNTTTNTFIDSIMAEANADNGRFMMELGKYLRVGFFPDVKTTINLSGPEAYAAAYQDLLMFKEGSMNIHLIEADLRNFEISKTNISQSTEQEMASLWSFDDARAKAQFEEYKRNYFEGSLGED
T3 sequence (P18177 1-546 limits assumed): as above
T2 sequence (P16154 1-542): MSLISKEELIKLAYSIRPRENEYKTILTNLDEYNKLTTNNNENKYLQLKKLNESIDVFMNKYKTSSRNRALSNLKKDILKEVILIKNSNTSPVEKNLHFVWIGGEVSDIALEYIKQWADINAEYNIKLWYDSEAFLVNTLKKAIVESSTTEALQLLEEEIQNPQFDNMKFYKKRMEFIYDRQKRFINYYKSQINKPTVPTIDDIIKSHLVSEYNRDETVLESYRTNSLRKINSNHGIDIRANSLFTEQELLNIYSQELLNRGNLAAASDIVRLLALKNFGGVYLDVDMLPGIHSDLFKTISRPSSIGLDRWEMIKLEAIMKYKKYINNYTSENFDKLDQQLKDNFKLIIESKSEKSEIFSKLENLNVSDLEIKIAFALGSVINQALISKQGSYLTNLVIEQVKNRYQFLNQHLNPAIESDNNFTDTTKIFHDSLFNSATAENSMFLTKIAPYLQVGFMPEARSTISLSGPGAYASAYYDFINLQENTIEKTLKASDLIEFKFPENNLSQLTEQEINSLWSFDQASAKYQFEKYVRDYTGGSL

OC[C@H]1NC[C@H](O)[C@@H](O)[C@@H]1O [Deoxynojirimycin]
Inhibition of TcdB-GTD GT activity (TcdB-GTD [1]): did not inhibit | Ki (TcdB-GTD [1]; [14]): > 10000 µM | Inhibition of TcdB-GTD GH activity (TcdB-GTD [2]): did not inhibit | Ki (TcdB-GTD [2]; [15]): > 10000 µM

O[C@H]1[C@H](O)[C@@H](O)CN2CC[C@H](O)[C@H]12 [Castanospermine]
Ki (TcdB-GTD [1]; [14]): 680 ± 20 µM | remaining activity at 1000 µM (TcdB-GTD [1]; read-out: % enzyme activity): 25.9% | remaining activity at 4000 µM (TcdB-GTD [1]; read-out: % enzyme activity): 0% | Ki (TcdB-GTD [2]; [15]): 3400 ± 200 µM | IC50 (C. sordelli lethal toxin): ~100 µM | IC50 (TcdB-GTD [3]): ~400 µM

OC[C@H]1OC(O)[C@H](O)[C@@H](O)[C@@H]1O (stereo partly shown) [Glucose]
Inhibition (TcdB-GTD [1]): no significant inhibition | Inhibition of TcdB-GTD (TcdB-GTD [3]; ref 42 (numbering of the author response)): no significant inhibition

OC[C@H]1CNC[C@@H](O)[C@@H]1O [Isofagomine]
Cell toxicity (cell lines): no cell toxicity | Mode of inhibition versus UDP-glucose (TcdB-GTD [1]): uncompetitive | fold improvement of inhibitory affinity in the presence of UDP (TcdB-GTD [1]): 2.4 fold | Ki (TcdB-GTD [1]; [14]): 1.4 ± 0.1 µM | Ki (TcdB-GTD [1]; [16]): 0.29 ± 0.06 µM | remaining activity at 0.015 µM (TcdB-GTD [1]; read-out: % enzyme activity): 99.7% | remaining activity at 0.061 µM (TcdB-GTD [1]; read-out: % enzyme activity): 100% | remaining activity at 0.24 µM (TcdB-GTD [1]; read-out: % enzyme activity): 88.2% | remaining activity at 0.48 µM (TcdB-GTD [1]; read-out: % enzyme activity): 95.9% | remaining activity at 1.95 µM (TcdB-GTD [1]; read-out: % enzyme activity): 72% | remaining activity at 3.9 µM (TcdB-GTD [1]; read-out: % enzyme activity): 37.8% | remaining activity at 3.906 µM (TcdB-GTD [1]; read-out: % enzyme activity): 15.8% | remaining activity at 7.81 µM (TcdB-GTD [1]; read-out: % enzyme activity): 19.7% | remaining activity at 15.62 µM (TcdB-GTD [1]; read-out: % enzyme activity): 8.07% | remaining activity at […] (TcdB-GTD [1]; read-out: % enzyme activity): 87.8% and 80.5% and 43.4% | Binding to TcdB-GTD alone (ITC) (TcdB-GTD [4]): no significant binding | Effect on TcdA-induced apoptosis (Annexin V) [5]: prevented apoptosis | Unglucosylated Rac1 (Mab102) versus total Rac1 [6]: dose-dependent reappearance of unglucosylated Rac1 | Time to maximal levels in plasma, liver, spleen and brain [7]: ≤ 1 h | Ki (TcdB-GTD [2]; [15]): 4.8 ± 0.2 µM | IC50 [8]: 8.3 ± 3.6 µM | Tolerability of oral doses (Gaucher disease patients; 225 mg/day oral, Gaucher patients): well tolerated | Reduction in Gaucher disease symptoms (Gaucher disease patients; majority of patients): did not show a significant reduction | Effect on toxin-induced cell rounding [9]: prevented | IC50 [10]: 5.5 ± 1.5 µM | Mode of inhibition versus UDP-glucose (TcdA-GTD): uncompetitive inhibition | fold improvement of inhibition constant for TcdA-GTD relative to TcdB-GTD (TcdA-GTD): 5.8 fold | fold improvement of inhibition constant in the presence of UDP (TcdA-GTD): 15 fold | Ki (TcdA-GTD; [17]): 240 ± 10 nM | Ki (TcdA-GTD; [18]): 16 ± 2 nM | Unglucosylated Rac1 (Mab102) versus total Rac1 [11]: dose-dependent reappearance of unglucosylated Rac1 | ΔH [12]: -10.3 ± 0.1 kcal/mol | −TΔS [12]: 0.5 ± 0.2 kcal/mol | Kd [12]: 67 nM and 66.9 nM | Effect on toxin-induced cell rounding [13]: prevented

O.O=c1ccn([C@@H]2O[C@H](COP(=O)([O-])OP(=O)([O-])O)[C@@H](O)[C@H]2O)c(=O)[nH]1.[Na+].[Na+] [UDP, Uridine 5’diphosphate disodium salt hydrate]
Mode of inhibition versus UDP-glucose (TcdB-GTD [1]): competitive inhibition | remaining activity at 4.84 µM (TcdB-GTD [1]; read-out: % enzyme activity): 86.1% | remaining activity at 19.37 µM (TcdB-GTD [1]; read-out: % enzyme activity): 65.3% | remaining activity at 78 µM (TcdB-GTD [1]; read-out: % enzyme activity): 19.7% | remaining activity at […] (TcdB-GTD [1]; read-out: % enzyme activity): 99.1% | ΔH (TcdB-GTD [4]): -14.3 ± 3.9 kcal/mol | −TΔS (TcdB-GTD [4]): 8.2 ± 3.8 kcal/mol

O[C@H]1[C@H]2[C@H](O)CCCN2C[C@H]1O [Swainsonine]
Ki (TcdB-GTD [1]; Ki TcdB-GTD GT activity): > 10000 µM | Ki (TcdB-GTD [1]; [14]): > 10000 µM | Ki (TcdB-GTD [2]; Ki TcdB-GTD GH activity): > 10000 µM | Ki (TcdB-GTD [2]; [15]): > 10000 µM

O=C1O[C@H](CO)[C@@H](O)[C@H](O)[C@H]1O [Gluconolactone, D-gluconon-1,5-lactone]
Ki (TcdB-GTD [1]; [14]): 440 µM | Ki (TcdB-GTD [2]; [15]): 414 µM

OC[C@@H]1[C@@H](O)[C@H](O)[C@H]2[C@@H](O)CCN21 [Australine HCl, australine hydrochloride]
remaining activity at 500 µM (TcdB-GTD [1]; read-out: % enzyme activity): 73.4% | remaining activity at 1000 µM (TcdB-GTD [1]; read-out: % enzyme activity): 45.1% | remaining activity at 2000 µM (TcdB-GTD [1]; read-out: % enzyme activity): 21.8% | remaining activity at 4000 µM (TcdB-GTD [1]; read-out: % enzyme activity): 0% | remaining activity at […] (TcdB-GTD [1]; read-out: % enzyme activity): 100% | Ki (TcdB-GTD [1]; read-out: Ki TcdB-GTD glucosyltransferase activity): 1570 ± 430 µM | Ki (TcdB-GTD [2]; read-out: Ki TcdB-GTD GH activity, no inhibition): > 10000 µM | Ki (TcdB-GTD [2]; read-out: Ki TcdB-GTD glucohydrolase activity): > 10000 µM

OC[C@H]1CNC(O)[C@@H](O)[C@@H]1O (stereo partly shown) [Noeuromycin]
Cell toxicity (cell lines): no cell toxicity | Mode of inhibition versus UDP-glucose (TcdB-GTD [1]): uncompetitive | fold improvement of inhibitory affinity in the presence of UDP (TcdB-GTD [1]): 4.8 fold | fold less potent than isofagomine (TcdB-GTD [1]): 7.6 fold | Ki (TcdB-GTD [1]; [14]): 10.6 ± 1 µM | Ki (TcdB-GTD [1]; [16]): 4.4 ± 0.1 µM | Binding to TcdB-GTD alone (ITC) (TcdB-GTD [4]): no significant binding | Effect on TcdA-induced apoptosis (Annexin V) [5]: prevented apoptosis | Unglucosylated Rac1 (Mab102) versus total Rac1 [6]: dose-dependent reappearance of unglucosylated Rac1 | Ki (TcdB-GTD [2]; [15]): 12 ± 1.6 µM | IC50 [8]: 13.6 ± 5.6 µM | Effect on toxin-induced cell rounding [9]: prevented | IC50 [10]: 9.6 ± 3.3 µM | fold improvement of inhibition constant for TcdA-GTD relative to TcdB-GTD (TcdA-GTD): 2.3 fold | fold improvement of inhibition constant in the presence of UDP (TcdA-GTD): 23 fold | Ki (TcdA-GTD; Ki TcdA-GTD GT activity, fixed concentration of UDP at 2 x Ki UDP): 210 ± 50 nM | Ki (TcdA-GTD; [17]): 4700 ± 200 nM | Ki (TcdA-GTD; [18]): 214 ± 55 nM | Unglucosylated Rac1 (Mab102) versus total Rac1 [11]: dose-dependent reappearance of unglucosylated Rac1 | ΔH [12]: -5.2 ± 0.1 kcal/mol | −TΔS [12]: 4.2 ± 0.3 kcal/mol | Kd [12]: 180 nM | Effect on toxin-induced cell rounding [13]: prevented
